Laboratory results from patent publication US5965701A, “Kappa receptor opioid peptides” (priority 1997, dated 1999).
Several values for one entry are separate records, joined by “and”; a condition that tells them apart may be missing. Equal values may be shown once. Where a SMILES comes first, the peptide text is derived from it. [ ]: non-standard residue; d: D form. The star is where a group is joined. NH(thiazol-2-yl) = c1csc(N*)n1; NH(4-picolyl) = c1cc(CN*)ccn1; dNle = CCCC[C@@H](N)C(=O)O; Morpholide = C1CN(*)CCO1; Piperidide = C1CCN(*)CC1; X1 = C1CN(*)CCS1; NEt2 = CCN(CC)*; NHcPr = C1CC1N*; NHBu = CCCCN*; NHPr = CCCN*

Experiments:
[1] = biological target: T1, cloned human kappa (hKOR) receptor (Homo sapiens, UniProt P41145); experiment: biochemical; assay type: binding; conditions: for μ/κ Ratio (binding affinity for KOR versus MOR): Ki MOR / Ki KOR; for Ki: read-out: Ki KOR
T1 construct: expressed in transfected cells; host or cells: HN9.10 (mouse hippocampal neuroblastoma), stably transfected
T1 sequence (P41145 whole entry): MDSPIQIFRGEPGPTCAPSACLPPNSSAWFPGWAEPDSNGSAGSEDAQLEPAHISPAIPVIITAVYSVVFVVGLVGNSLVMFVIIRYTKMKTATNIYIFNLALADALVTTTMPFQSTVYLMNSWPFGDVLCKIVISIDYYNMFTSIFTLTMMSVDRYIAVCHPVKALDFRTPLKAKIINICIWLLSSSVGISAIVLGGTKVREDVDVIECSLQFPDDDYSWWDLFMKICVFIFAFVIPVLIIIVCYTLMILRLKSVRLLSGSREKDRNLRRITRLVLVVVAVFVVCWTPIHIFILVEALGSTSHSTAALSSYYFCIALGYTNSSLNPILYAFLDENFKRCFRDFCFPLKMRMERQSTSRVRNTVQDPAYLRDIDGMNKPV

[2] = biological target: T2, cloned human mu opioid (hMOR) receptor (Homo sapiens, UniProt P35372); experiment: Competition binding at cloned hMOR, displacement of 3H-DAMGO; conditions: hMOR stably expressed in HN.9.10 cells, read-out: Ki MOR
T2 construct: expressed in transfected cells; host or cells: HN9.10 (mouse hippocampal neuroblastoma), stably transfected
T2 sequence (P35372 whole entry): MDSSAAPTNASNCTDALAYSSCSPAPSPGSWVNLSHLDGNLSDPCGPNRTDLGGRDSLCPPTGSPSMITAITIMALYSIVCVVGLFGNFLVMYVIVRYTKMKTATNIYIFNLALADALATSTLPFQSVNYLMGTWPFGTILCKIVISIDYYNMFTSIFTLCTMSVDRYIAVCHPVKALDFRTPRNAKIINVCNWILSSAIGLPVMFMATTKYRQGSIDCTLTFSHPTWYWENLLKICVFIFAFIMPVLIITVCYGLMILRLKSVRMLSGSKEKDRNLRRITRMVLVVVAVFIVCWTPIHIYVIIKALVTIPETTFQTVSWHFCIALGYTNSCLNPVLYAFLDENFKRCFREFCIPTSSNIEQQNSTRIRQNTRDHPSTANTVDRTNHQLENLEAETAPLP

conscious male ICR mice = experiment: Mouse acetic acid writhing test (WT); assay type: in vivo; conditions: for WT-ED50: i.v., 5 minutes before acetic acid i.p., writhes over 15 minutes; for % Antinociception 1 hr / % Antinociception 2 hr / % Antinociception 3 hr: submaximal effective dose i.v., percentage of the activity found at -5 min; for % Antinociception 1 hr: 60 min pretreatment; for % Antinociception 2 hr: 120 min pretreatment; for % Antinociception 3 hr: 180 min pretreatment
Procedure: Selected peptides that are identified in Tables A-G have been further specifically subjected to in vivo testing for determination of duration of action of their opioid properties, and the results are reported in Table H hereinafter. The peptide numbers correspond to those in the earlier tables and the figures with regard to μ/K ratio are simply carried over for reference purposes. The in vivo testing is carried out using a mouse writhing test (WT) that is well-suited for determining the length of duration of antinociceptive biological activity. This test is described in detail in an article by G. A. Bentley et al., Br. J. Phamac., 73:325-332, 1981, and it employs conscious male ICR mice which are purchased from Harlan and which weigh between 20 and 30 grams. The mice are fasted for 12 to 16 hours prior to beginning the test. The nociceptive behavior, i.e. writhing, to be monitored is induced by the intraperitoneal (i.p.) administration of dilute acetic acid. 10 milliliters of 0.6% aqueous acetic acid is used per kg of body weight. Writhing is scored during the 15 minutes following acetic acid administration. In a first step, compounds are tested at 3 to 4 increasing doses, given by intravenous route, and at one unique pretreatment time (-5 minutes before acetic acid injection). […] In a second step, this submaximal effective dose for each specific peptide is administered at various pretreatment times (i.e. -5 minutes, -60 minutes, -120 minutes and -180 minutes) prior to the administration of the acetic acid in order to determine the duration of action. Throughout the test, a control group of mice are used which are administered only the vehicle without the candidate peptide. The number of writhes are counted over a 15-minute period, starting from the time of acetic acid injection, and bioactivity, i.e. antinociception, is expressed as a percentage, and is calculated as follows:
100×(writhes in control group-writhes in treated group)/writhes in
Values higher than 100% indicate greater antinociception than at the beginning of the experiment. It is felt that the opioid peptide should be effective to reduce writhing by at least about 25% at a time of 1 hour to be considered to have long duration of in vivo action.
In addition to using this test to determine duration of antinociceptive activity, it is also used to measure the in vivo biopotency (short term) of the peptide. This value is given in the table under the heading WT-ED50 in milligrams per kg of body weight. The value is a measure of the dosage necessary to reduce the number of writhes in the mouse being tested by 50% (as compared to a control mouse) over a period of 15 minutes.

mouse = conditions: for TF-ED50: i.v., 52° C. water, central effects; for BPI (Brain Penetration Index): mouse, in vivo, iv

Compound	μ/κ Ratio (binding affinity for KOR versus MOR) [1]	Ki [1] [nM]	Ki [2] [nM]	WT-ED50 (conscious male ICR mice)	% Antinociception 1 hr (conscious male ICR mice) [%]	% Antinociception 2 hr (conscious male ICR mice) [%]	% Antinociception 3 hr (conscious male ICR mice) [%]	TF-ED50 (mouse) [mg/kg]	BPI (Brain Penetration Index) (mouse)	μ/κ Ratio (binding affinity for KOR versus MOR) ([1]; listed as Peptide No. 1)	WT-ED50 (conscious male ICR mice; listed as Peptide No. 1)	antinociception after 3 hours (conscious male ICR mice; mouse acetic acid writhing assay, Example 1)	duration of antinociceptive bioactivity (duration of action) (conscious male ICR mice; result in words)
CC(C)C[C@@H](NC(=O)[C@@H](Cc1ccccc1)NC(=O)[C@H](N)Cc1ccccc1)C(=O)N[C@H](CCCN)C(=O)N1CCOCC1 [Peptide 57, H-D-Phe-D-Phe-D-Leu-D-Onn-Mor]	28,000	0.19	5260	0.026 mg/kg	100	67.2	58.2	5.6	215				
CCCC[C@@H](NC(=O)[C@@H](Cc1ccccc1)NC(=O)[C@H](N)Cc1ccccc1)C(=O)N[C@H](CCCNC(=N)N)C(=O)NCc1ccncc1 [Peptide 8, H-D-Phe-D-Phe-D-Nle-D-Arg-NH(4-Pic)] (H-[dF][dF][dNle][dR]-{NH(4-picolyl)})	26,000	0.14	3640	0.01 mg/kg	66.9	45.1		9.84	984				
CCCC[C@@H](NC(=O)[C@@H](Cc1ccccc1)NC(=O)[C@H](N)Cc1ccccc1)C(=O)N[C@H](CCCNC(=N)N)C(=O)N(CC)CC [Peptide 7, H-D-Phe-D-Phe-D-Nle-D-Arg-N(Et2)] (H-[dF][dF][dNle][dR]-NEt2)	17,000	0.11	1900	0.02 mg/kg and 0.020 mg/kg	67.5	36.8		3.1	155				
CCCC[C@@H](NC(=O)[C@@H](Cc1ccccc1)NC(=O)[C@H](N)Cc1ccccc1)C(=O)N[C@H](CCCNC(=N)N)C(=O)N1CCOCC1 [Peptide 6, H-D-Phe-D-Phe-D-Nle-D-Arg-Mor] (H-[dF][dF][dNle][dR]-Morpholide)	42,000	0.06	2510	0.014 mg/kg	105.7	52.7		6.4	457				
CCCC[C@@H](NC(=O)[C@@H](Cc1ccccc1)NC(=O)[C@H](N)Cc1ccccc1)C(=O)N[C@H](CCCNC(=N)N)C(=O)NCC [Peptide 1, H-D-Phe-D-Phe-D-Nle-D-Arg-NHEt] (H-[dF][dF][dNle][dR]-NHEt)	38,000	~0.05	1890 ± 990	0.09 mg/kg	83.9	75.5	61.3	9.7	108	about 38,000	about 0.09 mg/kg	over 50%	very long duration of action
CCCC[C@@H](NC(=O)[C@@H](Cc1ccccc1)NC(=O)[C@H](N)Cc1ccccc1)C(=O)N[C@H](CCCNC(=N)N)C(=O)NCCC [Peptide 3, H-D-Phe-D-Phe-D-Nle-D-Arg-NHPr] (H-[dF][dF][dNle][dR]-NHPr)	18,000	0.09	1640	0.078 mg/kg	29	30.7		13.82	177				
CCCC[C@@H](NC(=O)[C@@H](Cc1ccccc1)NC(=O)[C@H](N)Cc1ccccc1)C(=O)N[C@H](CCCNC(=N)N)C(=O)Nc1nccs1 [Peptide 13, H-D-Phe-D-Phe-D-Nle-D-Arg-NH(2-Tzl)] (H-[dF][dF][dNle][dR]-{NH(thiazol-2-yl)})	2,700	0.59	1590	0.44 mg/kg	30.7								
CCCC[C@@H](NC(=O)[C@@H](Cc1ccccc1)NC(=O)[C@H](N)Cc1ccccc1)C(=O)N[C@H](CCCNC(=N)N)C(=O)NC1CC1 [Peptide 5, H-D-Phe-D-Phe-D-Nle-D-Arg-NH(Cyp)] (H-[dF][dF][dNle][dR]-NHcPr)	20,000	0.18	3520	0.04 mg/kg	66	34.5		4.4	110				
CCCC[C@@H](NC(=O)[C@@H](Cc1ccccc1)NC(=O)[C@H](N)Cc1ccccc1)C(=O)N[C@H](CCCNC(=N)N)C(=O)N1CCSCC1 [Peptide 10, H-D-Phe-D-Phe-D-Nle-D-Arg-Tmo] (H-[dF][dF][dNle][dR]-X1)	25,000	0.09	2260	0.067 mg/kg and 0.07 mg/kg	81.6	47.5							
CCNC(=O)[C@@H](CCCN)NC(=O)[C@@H](CC(C)C)NC(=O)[C@@H](Cc1ccccc1)NC(=O)[C@H](N)Cc1ccccc1 [Peptide 56, H-D-Phe-D-Phe-D-Leu-D-Orn-NHEt]	13,000	0.31	4150	0.057 mg/kg and 0.06 mg/kg	76.3	60.2							
CCCC[C@@H](NC(=O)[C@@H](Cc1ccccc1)NC(=O)[C@H](N)Cc1ccccc1)C(=O)N[C@H](CCCNC(=N)N)C(=O)NC [Peptide 2, H-D-Phe-D-Phe-D-Nle-D-Arg-NHMe] (H-[dF][dF][dNle][dR]-NHMe)	60,000	0.06	3620	0.14 mg/kg	70.5	29.8							
CCCCNC(=O)[C@@H](CCCNC(=N)N)NC(=O)[C@@H](CCCC)NC(=O)[C@@H](Cc1ccccc1)NC(=O)[C@H](N)Cc1ccccc1 [Peptide 4, H-D-Phe-D-Phe-D-Nle-D-Arg-NHBu] (H-[dF][dF][dNle][dR]-NHBu)	7,200	0.19	1370	0.3 mg/kg and 0.30 mg/kg	49.3								
CCCC[C@@H](NC(=O)[C@@H](Cc1ccccc1)NC(=O)[C@H](N)Cc1ccccc1)C(=O)N[C@H](CCCNC(=N)N)C(=O)N1CCCCC1 [Peptide 12, H-D-Phe-D-Phe-D-Nle-D-Arg-Pip] (H-[dF][dF][dNle][dR]-Piperidide)	7,000	0.15	1050	0.07 mg/kg	60.5	53.6							
